# From ChEMBL document CHEMBL1127175, “4-hydroxyphenoxymethylene bisphosphonic acid derivatives: potent, non-hydrolysable inhibitors of MYO-inositol monophosphatase” (Bioorg Med Chem Lett, 1993)
# Molecular target: T1, Inositol monophosphatase 1 (Bos taurus, UniProt P20456)
# T1 sequence (P20456 whole entry): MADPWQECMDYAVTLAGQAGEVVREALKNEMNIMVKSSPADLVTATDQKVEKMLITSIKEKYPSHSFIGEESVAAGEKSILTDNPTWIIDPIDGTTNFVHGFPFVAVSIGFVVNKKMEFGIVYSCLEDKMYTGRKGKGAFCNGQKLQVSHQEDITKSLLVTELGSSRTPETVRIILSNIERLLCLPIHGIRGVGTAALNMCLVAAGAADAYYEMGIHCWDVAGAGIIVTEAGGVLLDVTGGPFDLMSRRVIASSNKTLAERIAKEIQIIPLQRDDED
# Assay: Tested for the inhibitory activity against recombinant bovine brain myo-inositol monophosphatase
row,Structure (SMILES),IC50
1,O=C(NCc1cccc(CC(Oc2ccc(O)cc2)(P(=O)(O)O)P(=O)(O)O)c1)c1ccc(Cl)c(Cl)c1,0.08 µM
2,O=P(O)(O)C(Oc1ccc(O)cc1)P(=O)(O)O,27 µM
3,O=P(O)(O)C(O)(Cc1ccc(Cl)c(Cl)c1)P(=O)(O)O,23 µM
4,CC(Oc1ccc(O)cc1O)(P(=O)(O)O)P(=O)(O)O,4.4 µM
5,O=P(O)(O)C(Cc1ccccc1)(Oc1ccc(O)cc1)P(=O)(O)O,0.5 µM

# The remaining compounds from weak to strong by IC50, led by results:
row,IC50,Structure (SMILES)
1,40.8 µM,O=P(O)(O)C(Oc1ccc(O)cc1O)P(=O)(O)O
2,19.2 µM,O=P(O)(O)C(Cc1ccccc1)(O[C@@H]1CC[C@@H](O)C[C@@H]1O)P(=O)(O)O
3,4 µM,CC(O[C@@H]1CC[C@@H](O)C[C@@H]1O)(P(=O)(O)O)P(=O)(O)O
4,2.5 µM,O=P(O)(O)C(CCCCCCc1ccccc1)(O[C@@H]1CC[C@@H](O)C[C@@H]1O)P(=O)(O)O
5,0.33 µM,CC(Oc1ccc(O)cc1)(P(=O)(O)O)P(=O)(O)O [L-690330]
